Experimental data taken from patent publication US20240424113A1, “CONJUGATES COMPRISING ANTIFUNGALS AND HEAT SHOCK PROTEIN 90 (HSP90) INHIBITORS AND METHODS OF USE THEREOF” (Bright Angel Therapeutics Inc., priority 2021, published 2024).
Converted amounts (≈) assume the structure as drawn.

Legend:
[1] = target: Hsp90 Nuclear Binding Domain (NBD) (Candida albicans (strain SC5314 / ATCC MYA-2876) (Yeast), UniProt P46598); experiment: Surface Plasmon Resonance (SPR) binding, C. albicans Hsp90 NBD; conditions: biotinylated Hsp90 NBD on streptavidin chip, 25° C., 1:1 binding model
Chain of Hsp90 Nuclear Binding Domain (NBD) (Candida albicans (strain SC5314 / ATCC MYA-2876) (Yeast), UniProt P46598) (P46598 1-218 limits assumed): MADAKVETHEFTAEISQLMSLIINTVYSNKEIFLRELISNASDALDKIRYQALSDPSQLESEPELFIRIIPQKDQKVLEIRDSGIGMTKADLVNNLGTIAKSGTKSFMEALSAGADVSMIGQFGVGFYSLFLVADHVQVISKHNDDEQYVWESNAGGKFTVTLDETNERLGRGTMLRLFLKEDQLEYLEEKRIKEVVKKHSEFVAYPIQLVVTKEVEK
Experimental: (§1) Surface Plasmon Resonance (SPR) Experiments. SPR experiments were performed on a Biacore S200 instrument at 25° C. Biotinylated Hsp90 Nuclear Binding Domain (NBD) was diluted to 40 μg/mL and immobilized on a streptavidin chip (Sensor Chip SA, GE Healthcare) at a density of 2000-2500 response units (RU) on the biosensor surface.
(§2) Recombinant Hsp90 NBDs were expressed and purified as previously described (Whitesell et al., Nat Commun 10, 402 (2019)) with the following modification; Hsp90 NBD expression constructs were modified to encode a C-terminal AviTag for site-specific on-column biotinylation with a BirA biotin-ligase kit (Avidity LLC; BirA-500). Stock protein solutions in 50% glycerol were stored at −20° C. until dilution into relevant buffers. Binding experiments were done in HBS-P (0.01 M HEPES, pH 7.4, 0.15 M NaCl, 0.005% v/v surfactant P20, GE Healthcare) with 2% DMSO at flow rate of 40 μL/min. Test compounds (dilution series) were injected with a 60 s association time and 600 s dissociation time. Resulting sensorgrams were analyzed with a fit to a 1:1 binding model, using BIA evaluation software.

[2] = target: Hsp90 Nuclear Binding Domain (NBD) (Aspergillus fumigatus, UniProt P40292); experiment: Surface Plasmon Resonance (SPR) binding, A. fumigatus Hsp90 NBD; conditions: biotinylated Hsp90 NBD on streptavidin chip, 25° C., 1:1 binding model; NB undefined
Chain of Hsp90 Nuclear Binding Domain (NBD) (Aspergillus fumigatus, UniProt P40292) (P40292 whole entry, looked up, the tested form may be a part): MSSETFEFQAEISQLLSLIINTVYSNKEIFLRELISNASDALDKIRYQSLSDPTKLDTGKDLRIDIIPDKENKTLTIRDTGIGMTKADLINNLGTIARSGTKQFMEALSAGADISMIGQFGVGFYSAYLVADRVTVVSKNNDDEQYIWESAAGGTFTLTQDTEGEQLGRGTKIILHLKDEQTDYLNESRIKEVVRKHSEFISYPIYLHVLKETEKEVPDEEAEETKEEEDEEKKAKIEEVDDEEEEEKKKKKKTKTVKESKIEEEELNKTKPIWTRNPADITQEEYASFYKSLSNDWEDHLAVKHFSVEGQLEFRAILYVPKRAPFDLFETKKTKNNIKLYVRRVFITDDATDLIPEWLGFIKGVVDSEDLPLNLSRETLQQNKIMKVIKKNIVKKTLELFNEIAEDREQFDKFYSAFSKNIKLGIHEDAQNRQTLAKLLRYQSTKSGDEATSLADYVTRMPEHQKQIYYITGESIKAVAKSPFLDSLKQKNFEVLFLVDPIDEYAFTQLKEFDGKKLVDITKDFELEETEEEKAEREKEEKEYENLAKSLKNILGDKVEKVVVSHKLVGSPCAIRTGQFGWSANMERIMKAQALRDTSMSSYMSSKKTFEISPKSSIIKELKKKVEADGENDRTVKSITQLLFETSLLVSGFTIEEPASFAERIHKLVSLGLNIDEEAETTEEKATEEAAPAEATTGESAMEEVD
Experimental: as §1, §2

[3] = system: CaCl2; experiment: Antifungal sensitivity testing (broth microdilution MIC); assay type: cell-based; conditions: Table 4; 96-well broth microdilution
Experimental: Antifungal Sensitivity Testing. Minimum inhibitory concentrations (MICs) were determined in flat bottom, 96-well plate format using a modified broth microdilution protocol as previously described (Singh et al., PLoS Pathog. 5, e1000532 (2009); LaFayette et al., PLoS Pathog. 6, 79-80 (2010)). Compounds were formulated in dimethyl sulfoxide (DMSO, Sigma-Aldrich Co.); fluconazole was dissolved in sterile ddH2O. Each compound was tested in duplicate in at least two independent experiments. To test for fungicidal activity, cultures from MIC plates were spotted on YPD agar plates using a spotter (Frogger, V&P Scientific, Inc.). Plates were photographed after 24 h of incubation at 30° C.

SMILES	Kd [1] [nM]	Kd [2] [nM]	MIC50 [3] [µM]
Nc1nc2sc(-c3nc(C(=O)NCC(O)(Cn4cncn4)c4ccc(F)cc4F)no3)cc2n(-c2ccc3c(c2)N(c2ccccc2)CCO3)c1=O (stereo not drawn) [Compound I-57, 5-(3-amino-2-oxo-1-(4-phenyl-3,4-dihydro-2H-benzo[b][1,4]oxazin-6-yl)-1,2-dihydrothieno[2,3-b]pyrazin-6-yl)-N-(2-(2,4-difluorophenyl)-2-hydroxy-3-(1H-1,2,4-triazol-1-yl)propyl)-1,2,4-oxadiazole-3-carboxamide]	32.1	46.9	20 (≈ 14.5 µg/mL)
Nc1nc2sc(CNC3CCN(C[C@](O)(Cn4cncn4)c4ccc(F)cc4F)CC3)cc2n(-c2ccc3c(c2)N(c2ccccc2)CCO3)c1=O [Compound I-63, (S)-3-amino-6-(((1-(2-(2,4-difluorophenyl)-2-hydroxy-3-(1H-1,2,4-triazol-1-yl)propyl)piperidin-4-yl)amino)methyl)-1-(4-phenyl-3,4-dihydro-2H-benzo[b][1,4]oxazin-6-yl)thieno[2,3-b]pyrazin-2(1H)-one]	377	591	9 (≈ 6.53 µg/mL)
Nc1nc2sc(CNC3CN(CC(O)(Cn4cncn4)c4ccc(F)cc4F)C3)cc2n(-c2ccc3c(c2)N(c2ccccc2)CCO3)c1=O (stereo not drawn) [Compound I-66, 3-amino-6-(((1-(2-(2,4-difluorophenyl)-2-hydroxy-3-(1H-1,2,4-triazol-1-yl)propyl)azetidin-3-yl)amino)methyl)-1-(4-phenyl-3,4-dihydro-2H-benzo[b][1,4]oxazin-6-yl)thieno[2,3-b]pyrazin-2(1H)-one]	1060	1380	22.5 (≈ 15.7 µg/mL)
Nc1nc2sc(CN3CCN(CC(O)(Cn4cncn4)c4ccc(F)cc4F)CC3)cc2n(-c2ccc3c(c2)N(c2ccccc2)CCO3)c1=O (stereo not drawn) [Compound I-68, 3-amino-6-((4-(2-(2,4-difluorophenyl)-2-hydroxy-3-(1H-1,2,4-triazol-1-yl)propyl)piperazin-1-yl)methyl)-1-(4-phenyl-3,4-dihydro-2H-benzo[b][1,4]oxazin-6-yl)thieno[2,3-b]pyrazin-2(1H)-one]	417	545	0.75 (≈ 0.534 µg/mL)
Nc1nc2sc(CN[C@H]3CCN(CC(O)(Cn4cncn4)c4ccc(F)cc4F)C3)cc2n(-c2ccc3c(c2)N(c2ccccc2)CCO3)c1=O (stereo partly drawn) [Compound I-71, 3-amino-6-((((3S)-1-(2-(2,4-difluorophenyl)-2-hydroxy-3-(1H-1,2,4-triazol-1-yl)propyl)pyrrolidin-3-yl)amino)methyl)-1-(4-phenyl-3,4-dihydro-2H-benzo[b][1,4]oxazin-6-yl)thieno[2,3-b]pyrazin-2(1H)-one]	865	1260	6.25 (≈ 4.45 µg/mL)
Nc1nc2sc(CNCCC(O)(Cn3cncn3)c3ccc(F)cc3F)cc2n(-c2ccc3c(c2)N(c2ccccc2)CCO3)c1=O (stereo not drawn) [Compound I-74, 3-amino-6-(((3-(2,4-difluorophenyl)-3-hydroxy-4-(1H-1,2,4-triazol-1-yl)butyl)amino)methyl)-1-(4-phenyl-3,4-dihydro-2H-benzo[b][1,4]oxazin-6-yl)thieno[2,3-b]pyrazin-2(1H)-one]	429	853	12 (≈ 7.88 µg/mL)
Nc1nc2sc(CN[C@@H]3CCCN(CC(O)(Cn4cncn4)c4ccc(F)cc4F)C3)cc2n(-c2ccc3c(c2)N(c2ccccc2)CCO3)c1=O (stereo partly drawn) [Compound I-75, 3-amino-6-((((3R)-1-(2-(2,4-difluorophenyl)-2-hydroxy-3-(1H-1,2,4-triazol-1-yl)propyl)piperidin-3-yl)amino)methyl)-1-(4-phenyl-3,4-dihydro-2H-benzo[b][1,4]oxazin-6-yl)thieno[2,3-b]pyrazin-2(1H)-one]	233	340	4 (≈ 2.9 µg/mL)
Nc1nc2sc(CN[C@@H]3CCN(CC(O)(Cn4cncn4)c4ccc(F)cc4F)C3)cc2n(-c2ccc3c(c2)N(c2ccccc2)CCO3)c1=O (stereo partly drawn) [Compound I-77, 3-amino-6-((((3R)-1-(2-(2,4-difluorophenyl)-2-hydroxy-3-(1H-1,2,4-triazol-1-yl)propyl)pyrrolidin-3-yl)amino)methyl)-1-(4-phenyl-3,4-dihydro-2H-benzo[b][1,4]oxazin-6-yl)thieno[2,3-b]pyrazin-2(1H)-one]	187	373	12.5 (≈ 8.9 µg/mL)
Nc1nc2sc(CN[C@H]3CCCN(CC(O)(Cn4cncn4)c4ccc(F)cc4F)C3)cc2n(-c2ccc3c(c2)N(c2ccccc2)CCO3)c1=O (stereo partly drawn) [Compound I-79, 3-amino-6-((((3S)-1-(2-(2,4-difluorophenyl)-2-hydroxy-3-(1H-1,2,4-triazol-1-yl)propyl)piperidin-3-yl)amino)methyl)-1-(4-phenyl-3,4-dihydro-2H-benzo[b][1,4]oxazin-6-yl)thieno[2,3-b]pyrazin-2(1H)-one]	877	1020	3 (≈ 2.18 µg/mL)
Nc1nc2sc(CN[C@H]3[C@@H]4CN(CC(O)(Cn5cncn5)c5ccc(F)cc5F)C[C@@H]43)cc2n(-c2ccc3c(c2)N(c2ccccc2)CCO3)c1=O (stereo partly drawn) [Compound I-81, 3-amino-6-((((1R,5S,6s)-3-(2-(2,4-difluorophenyl)-2-hydroxy-3-(1H-1,2,4-triazol-1-yl)propyl)-3-azabicyclo[3.1.0]hexan-6-yl)amino)methyl)-1-(4-phenyl-3,4-dihydro-2H-benzo[b][1,4]oxazin-6-yl)thieno[2,3-b]pyrazin-2(1H)-one]	825	1040	2.5 (≈ 1.81 µg/mL)
Nc1nc2sc(CNCC(O)(Cn3cncn3)c3ccc(F)cc3F)cc2n(-c2ccc3c(c2)N(c2ccccc2)CCO3)c1=O (stereo not drawn) [Compound I-82, 3-amino-6-(((2-(2,4-difluorophenyl)-2-hydroxy-3-(1H-1,2,4-triazol-1-yl)propyl)amino)methyl)-1-(4-phenyl-3,4-dihydro-2H-benzo[b][1,4]oxazin-6-yl)thieno[2,3-b]pyrazin-2(1H)-one]	826	1350	1.6 (≈ 1.03 µg/mL)
CC1(NCc2cc3c(nc(N)c(=O)n3-c3ccc4c(c3)N(c3ccccc3)CCO4)s2)CCN(CC(O)(Cn2cncn2)c2ccc(F)cc2F)CC1 (stereo not drawn) [Compound I-117, 3-amino-6-(((1-(2-(2,4-difluorophenyl)-2-hydroxy-3-(1H-1,2,4-triazol-1-yl)propyl)-4-methylpiperidin-4-yl)amino)methyl)-1-(4-phenyl-3,4-dihydro-2H-benzo[b][1,4]oxazin-6-yl)thieno[2,3-b]pyrazin-2(1H)-one]	461	298	3 (≈ 2.22 µg/mL)
Nc1nc2sc(CN[C@@H]3CCN(CCC(O)(Cn4cncn4)c4ccc(F)cc4F)C3)cc2n(-c2ccc3c(c2)N(c2ccccc2)CCO3)c1=O (stereo partly drawn) [Compound I-120, 3-amino-6-((((3R)-1-(3-(2,4-difluorophenyl)-3-hydroxy-4-(1H-1,2,4-triazol-1-yl)butyl)pyrrolidin-3-yl)amino)methyl)-1-(4-phenyl-3,4-dihydro-2H-benzo[b][1,4]oxazin-6-yl)thieno[2,3-b]pyrazin-2(1H)-one]	179	265	17.5 (≈ 12.7 µg/mL)
Nc1nc2sc(CN[C@@H]3CCN(CC[C@@](O)(Cn4cncn4)c4ccc(F)cc4F)C3)cc2n(-c2ccc3c(c2)N(c2ccccc2)CCO3)c1=O [Compound I-123, 3-amino-6-((((R)-1-((S)-3-(2,4-difluorophenyl)-3-hydroxy-4-(1H-1,2,4-triazol-1-yl)butyl)pyrrolidin-3-yl)amino)methyl)-1-(4-phenyl-3,4-dihydro-2H-benzo[b][1,4]oxazin-6-yl)thieno[2,3-b]pyrazin-2(1H)-one]	145	238	11.5 (≈ 8.35 µg/mL)
Nc1nc2sc(CN[C@H]3[C@@H]4CN(C[C@](O)(Cn5cncn5)c5ccc(F)cc5F)C[C@@H]43)cc2n(-c2ccc3c(c2)N(c2ccccc2)CCO3)c1=O [Compound I-125, 3-amino-6-((((1R,5S,6R)-3-((S)-2-(2,4-difluorophenyl)-2-hydroxy-3-(1H-1,2,4-triazol-1-yl)propyl)-3-azabicyclo[3.1.0]hexan-6-yl)amino)methyl)-1-(4-phenyl-3,4-dihydro-2H-benzo[b][1,4]oxazin-6-yl)thieno[2,3-b]pyrazin-2(1H)-one]	575	886	5.75 (≈ 4.16 µg/mL)
Nc1nc2sc(CN[C@H]3[C@@H]4CN(C[C@@](O)(Cn5cncn5)c5ccc(F)cc5F)C[C@@H]43)cc2n(-c2ccc3c(c2)N(c2ccccc2)CCO3)c1=O [Compound I-127, 3-amino-6-((((1R,5S,6S)-3-((R)-2-(2,4-difluorophenyl)-2-hydroxy-3-(1H-1,2,4-triazol-1-yl)propyl)-3-azabicyclo[3.1.0]hexan-6-yl)amino)methyl)-1-(4-phenyl-3,4-dihydro-2H-benzo[b][1,4]oxazin-6-yl)thieno[2,3-b]pyrazin-2(1H)-one]	699	1190	6.25 (≈ 4.52 µg/mL)
